# Laboratory results as given in US20220041681A1 (MEDIMMUNE LIMITED, priority 2016, published 2022).
# Tested on: Healthy volunteer
# Experiment: Phase 1 single-ascending dose study
# Settings: for TEAE: Abdominal distension / TEAE: Abdominal pain / TEAE: Application site erosion / TEAE: Arrhythmia / TEAE: Atrioventricular block second degree / TEAE: Cardiac Disorders / TEAE: Decreased appetite / TEAE: Diarrhea / TEAE: Dizziness / TEAE: Gastrointestinal Disorders / TEAE: Headache / TEAE: Immune System Disorders / TEAE: Injury associated with device / TEAE: Injury poisoning and procedural complications / TEAE: Metabolism and nutrition disorders / TEAE: Musculoskeletal and connective tissue disorders / TEAE: Musculoskeletal chest pain / TEAE: Nasopharyngitis / TEAE: Nausea / TEAE: Nervous system disorders / TEAE: Oropharyngeal pain / TEAE: Procedural dizziness / TEAE: Respiratory, thoracic and mediastinal disorders / TEAE: Seasonal allergy / TEAE: Subjects with at least one event / TEAE: Ventricular extrasystoles / TEAE: Vomiting: N = 6, subjects n (%)
smiles,measurement,setting,value
CCCCCCCCCCCCCCCC(=O)N[C@@H](CCC(=O)NCCCC[C@H](NC(=O)[C@H](CC(=O)O)NC(=O)[C@H](CO)NC(=O)C(NC(=O)[C@H](Cc1ccccc1)NC(=O)C(NC(=O)CNC(=O)[C@H](CCC(N)=O)NC(=O)[C@H](CO)NC(=O)[C@@H](N)Cc1cnc[nH]1)[C@@H](C)O)[C@@H](C)O)C(=O)N[C@@H](CO)C(=O)N[C@@H](CCC(=O)O)C(=O)N[C@@H](Cc1ccc(O)cc1)C(=O)N[C@@H](CC(C)C)C(=O)N[C@@H](CC(=O)O)C(=O)N[C@@H](CO)C(=O)N[C@@H](CCC(=O)O)C(=O)N[C@@H](CCCNC(=N)N)C(=O)N[C@@H](C)C(=O)N[C@@H](CCCNC(=N)N)C(=O)N[C@@H](CC(=O)O)C(=O)N[C@@H](Cc1ccccc1)C(=O)N[C@H](C(=O)N[C@@H](C)C(=O)N[C@@H](Cc1c[nH]c2ccccc12)C(=O)N[C@@H](CC(C)C)C(=O)N[C@@H](CCC(=O)O)C(=O)N[C@@H](C)C(=O)NCC(=O)NCC(=O)O)C(C)C)C(=O)O (stereo partly shown) [Peptide G933],TEAE: Abdominal distension,5 μg,0
same,TEAE: Abdominal pain,5 μg,0
same,TEAE: Application site erosion,5 μg,0
same,TEAE: Arrhythmia,5 μg,0
same,TEAE: Atrioventricular block second degree,5 μg,0
same,TEAE: Cardiac Disorders,5 μg,0
same,TEAE: Decreased appetite,5 μg,0
same,TEAE: Diarrhea,5 μg,0
same,TEAE: Dizziness,5 μg,0
same,TEAE: Gastrointestinal Disorders,5 μg,0
same,TEAE: Headache,5 μg,1 (16.7%)
same,TEAE: Immune System Disorders,5 μg,0
same,TEAE: Injury associated with device,5 μg,0
same,TEAE: Injury poisoning and procedural complications,5 μg,0
same,TEAE: Metabolism and nutrition disorders,5 μg,0
same,TEAE: Musculoskeletal and connective tissue disorders,5 μg,0
same,TEAE: Musculoskeletal chest pain,5 μg,0
same,TEAE: Nasopharyngitis,5 μg,1 (16.7%)
same,TEAE: Nausea,5 μg,0
same,TEAE: Nervous system disorders,5 μg,1 (16.7%)
same,TEAE: Oropharyngeal pain,5 μg,0
same,TEAE: Procedural dizziness,5 μg,0
same,"TEAE: Respiratory, thoracic and mediastinal disorders",5 μg,0
same,TEAE: Seasonal allergy,5 μg,0
same,TEAE: Subjects with at least one event,5 μg,2 (33.3%)
same,TEAE: Ventricular extrasystoles,5 μg,0
same,TEAE: Vomiting,5 μg,0
same,TEAE: Abdominal distension,10 μg,0
same,TEAE: Abdominal pain,10 μg,1 (16.7%)
same,TEAE: Application site erosion,10 μg,0
same,TEAE: Arrhythmia,10 μg,0
same,TEAE: Atrioventricular block second degree,10 μg,1 (16.7%)
same,TEAE: Cardiac Disorders,10 μg,1 (16.7%)
same,TEAE: Decreased appetite,10 μg,0
same,TEAE: Diarrhea,10 μg,1 (16.7%)
same,TEAE: Dizziness,10 μg,1 (16.7%)
same,TEAE: Gastrointestinal Disorders,10 μg,1 (16.7%)
same,TEAE: Headache,10 μg,0
same,TEAE: Immune System Disorders,10 μg,0
same,TEAE: Injury associated with device,10 μg,0
same,TEAE: Injury poisoning and procedural complications,10 μg,0
same,TEAE: Metabolism and nutrition disorders,10 μg,0
same,TEAE: Musculoskeletal and connective tissue disorders,10 μg,0
same,TEAE: Musculoskeletal chest pain,10 μg,0
same,TEAE: Nasopharyngitis,10 μg,0
same,TEAE: Nausea,10 μg,0
same,TEAE: Nervous system disorders,10 μg,1 (16.7%)
same,TEAE: Oropharyngeal pain,10 μg,0
same,TEAE: Procedural dizziness,10 μg,0
same,"TEAE: Respiratory, thoracic and mediastinal disorders",10 μg,0
same,TEAE: Seasonal allergy,10 μg,0
same,TEAE: Subjects with at least one event,10 μg,3 (50.0%)
same,TEAE: Ventricular extrasystoles,10 μg,0
same,TEAE: Vomiting,10 μg,0
same,TEAE: Abdominal distension,30 μg,0
same,TEAE: Abdominal pain,30 μg,0
same,TEAE: Application site erosion,30 μg,1 (16.7%)
same,TEAE: Arrhythmia,30 μg,0
same,TEAE: Atrioventricular block second degree,30 μg,0
same,TEAE: Cardiac Disorders,30 μg,0
same,TEAE: Decreased appetite,30 μg,0
same,TEAE: Diarrhea,30 μg,0
same,TEAE: Dizziness,30 μg,1 (16.7%)
same,TEAE: Gastrointestinal Disorders,30 μg,0
same,TEAE: Headache,30 μg,1 (16.7%)
same,TEAE: Immune System Disorders,30 μg,1 (16.7%)
same,TEAE: Injury associated with device,30 μg,0
same,TEAE: Injury poisoning and procedural complications,30 μg,1 (16.7%)
same,TEAE: Metabolism and nutrition disorders,30 μg,0
same,TEAE: Musculoskeletal and connective tissue disorders,30 μg,1 (16.7%)
same,TEAE: Musculoskeletal chest pain,30 μg,1 (16.7%)
same,TEAE: Nasopharyngitis,30 μg,0
same,TEAE: Nausea,30 μg,0
same,TEAE: Nervous system disorders,30 μg,1 (16.7%)
same,TEAE: Oropharyngeal pain,30 μg,0
same,TEAE: Procedural dizziness,30 μg,1 (16.7%)
same,"TEAE: Respiratory, thoracic and mediastinal disorders",30 μg,0
same,TEAE: Seasonal allergy,30 μg,1 (16.7%)
same,TEAE: Subjects with at least one event,30 μg,4 (66.7%)
same,TEAE: Ventricular extrasystoles,30 μg,0
same,TEAE: Vomiting,30 μg,0
same,vomiting episodes,"100 μg dose, 1 subject",1 episode
same,TEAE: Abdominal distension,100 μg,0
same,TEAE: Abdominal pain,100 μg,0
same,TEAE: Application site erosion,100 μg,0
same,TEAE: Arrhythmia,100 μg,1 (16.7%)
same,TEAE: Atrioventricular block second degree,100 μg,0
same,TEAE: Cardiac Disorders,100 μg,1 (16.7%)
same,TEAE: Decreased appetite,100 μg,0
same,TEAE: Diarrhea,100 μg,0
same,TEAE: Dizziness,100 μg,0
same,TEAE: Gastrointestinal Disorders,100 μg,1 (16.7%)
same,TEAE: Headache,100 μg,1 (16.7%)
same,TEAE: Immune System Disorders,100 μg,0
same,TEAE: Injury associated with device,100 μg,0
same,TEAE: Injury poisoning and procedural complications,100 μg,0
same,TEAE: Metabolism and nutrition disorders,100 μg,0
same,TEAE: Musculoskeletal and connective tissue disorders,100 μg,0
same,TEAE: Musculoskeletal chest pain,100 μg,0
same,TEAE: Nasopharyngitis,100 μg,0
same,TEAE: Nausea,100 μg,1 (16.7%)
same,TEAE: Nervous system disorders,100 μg,2 (33.3%)
same,TEAE: Oropharyngeal pain,100 μg,0
same,TEAE: Procedural dizziness,100 μg,0
same,"TEAE: Respiratory, thoracic and mediastinal disorders",100 μg,0
same,TEAE: Seasonal allergy,100 μg,0
same,TEAE: Ventricular extrasystoles,100 μg,0
same,TEAE: Vomiting,100 μg,1 (16.7%)
same,vomiting episodes,"150 μg dose, 4 subjects",9 episodes
same,TEAE: Abdominal distension,150 μg,2 (3.3%)
same,TEAE: Abdominal pain,150 μg,0
same,TEAE: Application site erosion,150 μg,0
same,TEAE: Arrhythmia,150 μg,0
same,TEAE: Atrioventricular block second degree,150 μg,0
same,TEAE: Cardiac Disorders,150 μg,0
same,TEAE: Decreased appetite,150 μg,2 (33.3%)
same,TEAE: Diarrhea,150 μg,0
same,TEAE: Dizziness,150 μg,2 (33.3%)
